These results are taken from article PMC12720098, “Prolintane analogs as hybrid monoamine transporter ligands: Structural determinants and species differences” (The Journal of Biological Chemistry, 2025).

Holding throughout (assay type): cell-based
In test [1] the target is T1, hSERT (Homo sapiens, UniProt P31645).
T1 construct: expressed in transfected cells
The test can be described thus: Uptake inhibition assay ([3H]5-HT) in transfected HEK293 cells. Here is the method: (§1) HEK293 cells stably expressing human monoamine transporters hSERT, hDAT or hNET were seeded into poly-D-lysine (PDL) coated 96-well plates with a density of approximately 36,000 cells per well 1 day prior to experiments. A day after seeding, the cell medium was replaced with 200 μl Krebs-HEPES-buffer (KHB; 120 mM NaCl, 3 mM KCl, 2 mM CaCl2·2H2O, 2 mM MgCl2·6H2O, 20 mM D-glucose, pH = 7.3). The test drugs were initially dissolved in Milli-Q H2O or dimethyl sulfoxide (DMSO) at a concentration of 10 to 100 mM. Then, cells were treated with the respective concentration of the test drug diluted in KHB for 5 min as a pre-incubation step. Subsequently, in the uptake step, the solution was replaced with 50 μl/well diluted drug solution and tritiated substrate (hDAT: 0.1 μM [^3H]DA; hNET: 0.02 μM [^3H]MPP^+; hSERT: 0.1 μM [^3H]5-HT) for 1 min (hDAT, hSERT) or 3 min (hNET). After incubation, cells were immediately washed with 200 μl KHB to stop uptake. Uptake was indirectly measured by quantifying beta emission with liquid scintillation counting (Wallac 1450 MicroBeta TriLux Liquid Scintillation Counter & Lumi; GMI). Therefore, 200 μl Ultima Gold XR scintillation cocktail (PerkinElmer, MA, USA) was added to each well.
(§2) Half-maximal inhibitory concentrations (IC50) were obtained from fitting a sigmoidal dose–response ( Y=Bottom+Top−Bottom/1+10^((LogIC50−X)·HillSlope) ) in GraphPad Prism 10.3.1 (GraphPad Software Inc.). Uptake inhibition data were evaluated by one-way ANOVA followed by Tukey's multiple comparisons test. Release data were analyzed using a two-way ANOVA (batch release) or a mixed-effects model with Geisser-Greenhouse correction (time-dependent traces) employing Šidák correction for comparing differences between compounds with or without the addition of monensin.

The target of test [2] is T2, hNET (Homo sapiens, UniProt P23975).
T2 construct: expressed in transfected cells
The test can be described thus: Uptake inhibition assay ([3H]MPP+) in transfected HEK293 cells. How it is done: as §1, §2

A further test has as its target T3, hDAT (Homo sapiens, UniProt Q01959).
T3 construct: expressed in transfected cells
The test can be described thus: Batch release assay ([3H]MPP+) in transfected HEK293 cells. As to conditions: % efflux of total uptake, compounds approximately at IC50 concentration. Here is the method: (§3) Batch release assays were performed as described previously ([44]). In brief, HEK293 cells stably expressing monoamine transporters were seeded similar to the procedure used for uptake inhibition assays. A day after seeding cells were pre-loaded with 50 μl/well 0.015 μM [^3H]MPP^+ (hDAT, hNET), or 0.08 μM [^3H]5-HT (hSERT) for 20 min at 37 °C. Then cells were washed four times for 3 to 4 min each and further incubated with KHB or KHB + monensin. After 10 min of incubation, two (screening) to four (full traces; hSERT) 2 min incubations were performed to establish a baseline release without substance. […] Each fraction was transferred to an empty well in the 96-well plate. For screening, a known inhibitor (hDAT, hNET: 50 μM GBR12909) and releaser (hDAT, hNET: 10 μM S-(+)-amphetamine) were used as controls. Ultima Gold XR scintillation cocktail was added to the remaining cells, and each well contained a release fraction. The counted radioactivity in the respective fraction was expressed as a percentage of total radioactivity at the start of the fraction.
as §2

The target of test [3] is T2, hNET. The description is as above. As to conditions: % efflux of total uptake, compounds approximately at IC50 concentration. Here is the method:
as §3, §2

Test [4] has as its target T1, hSERT. As to conditions: for Mean diff, hSERT efflux ± Mon (Šídák's multiple comparisons test): drug alone vs drug + monensin (Mon); for hSERT efflux ± Mon, mean diff: superfusion. Here is the method:
A day prior to the experiment, HEK293 cells stably expressing hSERT or rat SERT (rSERT) were seeded at a density of 100,000 cells per channel into 6 channel flow ibidi slides (Gräfelfing, Germany). On the day of the experiments, cells were preloaded with 0.1 μM [^3H]5-HT at 37 °C, 5% CO2 for 20 min. Subsequently, the slides were transferred to the superfusion apparatus ([59]). Cells were then washed with KHB for 15 min under a constant flow of 0.5 ml/min. Fractions were collected every 2 min in 8 ml vials containing 2 ml scintillation cocktail. Collection began with three baseline fractions using KHB, followed by four additional basal release fractions with KHB, either with or without 10 μM monensin. […] To assess residual radioactivity within the cells, they were lysed with 1% sodium dodecyl sulfate (SDS), and three final fractions were obtained. The measured tritiated substrate in each fraction was expressed as a percentage of the initial tritiated substrate present at the start of that fraction.
as §2

Test [5] deals with T1, hSERT. As to conditions: normalized to 10 µM 5-HT current. Here is the method:
One day prior to recording, either native HEK293 cells or HEK293 cells stably expressing monoamine transporters were seeded at low density onto PDL-coated 35 mm dishes. Patch-clamp experiments were conducted at a holding potential of −60 mV, with substrate-induced currents recorded at room temperature (20–24 °C) using an […] amplifier and pClamp 11.2 software (MDS Analytical Technologies). During recordings, cells were continuously superfused via a DAD-12 perfusion system and an 8-tube manifold (ALA Scientific Instruments), delivering an external solution composed of 140 mM NaCl, 2.5 mM CaCl2, 3 mM KCl, 2 mM MgCl2, 20 mM glucose, and 10 mM HEPES, with pH adjusted to 7.3 using NaOH. The intracellular pipette solution, designed to mimic physiological ionic conditions, contained 133 mM potassium gluconate, 5.9 mM NaCl, 1 mM CaCl2, 0.7 mM MgCl2, 10 mM HEPES, and 10 mM EGTA, with pH set to 7.2 using KOH. Currents were filtered at 1 kHz and digitized at 10 kHz via a Digidata 1550 digitizer (MDS Analytical Technologies), followed by analysis in Clampfit 10.2 (Molecular Devices). Substance-induced currents were normalized to the current elicited by a saturating concentration of 5-HT (10 μM) of the same cell. Holding currents were subtracted, and a 50 Hz digital Gaussian low-pass filter was applied to the traces for further analysis.

Structures are written as SMILES. Read-outs that look alike come from different tables or passages of the source.

T2 sequence (P23975 whole entry): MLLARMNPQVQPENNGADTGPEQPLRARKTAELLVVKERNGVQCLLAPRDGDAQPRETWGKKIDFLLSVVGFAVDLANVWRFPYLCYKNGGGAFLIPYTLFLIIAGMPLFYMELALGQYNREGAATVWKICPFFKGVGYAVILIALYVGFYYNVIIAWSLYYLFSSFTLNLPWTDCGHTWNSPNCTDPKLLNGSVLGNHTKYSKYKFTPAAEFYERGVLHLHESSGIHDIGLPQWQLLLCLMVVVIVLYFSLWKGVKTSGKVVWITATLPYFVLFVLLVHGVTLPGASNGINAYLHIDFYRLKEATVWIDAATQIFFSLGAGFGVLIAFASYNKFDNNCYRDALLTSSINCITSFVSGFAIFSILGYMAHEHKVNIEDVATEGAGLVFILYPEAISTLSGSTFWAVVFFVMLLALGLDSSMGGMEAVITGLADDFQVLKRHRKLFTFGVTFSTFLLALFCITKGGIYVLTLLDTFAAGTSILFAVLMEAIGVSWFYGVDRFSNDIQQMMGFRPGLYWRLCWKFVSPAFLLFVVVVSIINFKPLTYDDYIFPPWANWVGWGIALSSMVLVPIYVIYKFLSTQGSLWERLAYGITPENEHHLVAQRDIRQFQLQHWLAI
T3 sequence (Q01959 whole entry): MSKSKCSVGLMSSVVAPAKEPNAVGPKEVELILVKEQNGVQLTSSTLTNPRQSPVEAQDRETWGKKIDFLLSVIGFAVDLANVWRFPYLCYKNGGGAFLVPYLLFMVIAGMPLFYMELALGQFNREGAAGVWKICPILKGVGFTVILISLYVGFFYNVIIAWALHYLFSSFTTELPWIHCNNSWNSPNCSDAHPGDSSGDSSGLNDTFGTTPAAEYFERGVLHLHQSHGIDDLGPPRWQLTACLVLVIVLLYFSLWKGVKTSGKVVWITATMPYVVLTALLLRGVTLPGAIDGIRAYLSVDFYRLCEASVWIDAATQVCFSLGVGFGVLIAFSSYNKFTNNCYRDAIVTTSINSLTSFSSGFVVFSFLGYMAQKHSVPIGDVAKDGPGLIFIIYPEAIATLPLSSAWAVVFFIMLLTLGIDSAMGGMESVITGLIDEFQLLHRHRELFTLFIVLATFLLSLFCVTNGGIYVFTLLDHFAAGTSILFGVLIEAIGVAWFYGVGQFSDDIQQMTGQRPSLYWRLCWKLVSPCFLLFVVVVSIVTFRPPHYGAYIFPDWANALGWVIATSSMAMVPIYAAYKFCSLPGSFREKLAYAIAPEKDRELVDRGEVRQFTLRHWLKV
T1 sequence (P31645 whole entry): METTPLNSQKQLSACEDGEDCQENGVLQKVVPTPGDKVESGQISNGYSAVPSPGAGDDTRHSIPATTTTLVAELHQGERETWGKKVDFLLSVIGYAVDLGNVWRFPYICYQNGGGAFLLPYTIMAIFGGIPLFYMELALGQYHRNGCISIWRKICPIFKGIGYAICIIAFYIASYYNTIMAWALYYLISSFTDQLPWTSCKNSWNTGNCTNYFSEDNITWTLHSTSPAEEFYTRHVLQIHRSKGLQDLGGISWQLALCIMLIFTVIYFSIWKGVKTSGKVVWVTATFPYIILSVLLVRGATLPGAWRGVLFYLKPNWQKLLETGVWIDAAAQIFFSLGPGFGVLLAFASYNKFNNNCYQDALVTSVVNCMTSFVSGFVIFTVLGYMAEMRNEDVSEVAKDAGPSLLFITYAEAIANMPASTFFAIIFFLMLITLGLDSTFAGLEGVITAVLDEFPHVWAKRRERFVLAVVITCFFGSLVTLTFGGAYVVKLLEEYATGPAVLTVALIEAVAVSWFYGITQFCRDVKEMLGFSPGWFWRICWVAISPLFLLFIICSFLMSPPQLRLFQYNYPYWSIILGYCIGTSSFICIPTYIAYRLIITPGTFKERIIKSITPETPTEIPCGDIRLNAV

In the case of `CCCC(Cc1ccccc1F)N1CCCC1` (centres unmarked) [2-Fluoroprolintane, 1-[1-(2-fluorophenyl)pentan-2-yl]pyrrolidine], the IC50 at hSERT [1] came out at 35200 ± 9250 nM; at hNET [2], 102 ± 22 nM. The “hDAT-mediated efflux, predicted (LS) mean diff, No mon - Mon” value on hDAT is reported as -0.6425. Moreover, the “hNET-mediated efflux, predicted (LS) mean diff, No mon - Mon” value at hNET [3] was 0.3867. Further, the “Mean diff, hSERT efflux ± Mon (Šídák's multiple comparisons test)” value (shortened to “Mean diff, hSERT efflux ± Mon”) at hSERT [4] (Row 1 (time fraction)) is on record as -0.05533; on hSERT [4] (Row 2 (time fraction)), -0.01811; on hSERT [4] (Row 3 (time fraction)), -0.031; on hSERT [4] (Row 4 (time fraction)) it was -0.05989; on hSERT [4] (Row 5 (time fraction)), -0.128; on hSERT [4] (Row 6 (time fraction)), -0.2267. Besides, the “Mean diff, hSERT efflux ± Mon” value at hSERT [4] (Row 7 (time fraction)) is -0.3166; on hSERT [4] (Row 8 (time fraction)) it was -4.727; at hSERT [4] (Row 9 (time fraction)) it was -7.079; at hSERT [4] (Row 10 (time fraction)), -7.103; on hSERT [4] (Row 11 (time fraction)), -6.897; at hSERT [4] (Row 12 (time fraction)), -6.561. In addition, the “Mean of normalized currents elicited through hSERT by drug application” value at hSERT [5] is recorded as 0.28.

As to `CCCC(Cc1ccccc1C)N1CCCC1` (centres unmarked) [2-Methylprolintane, 1-[1-(2-methylphenyl)pentan-2-yl]pyrrolidine], the figures for the IC50 on hSERT [1] and on hNET [2] were 4250 ± 1780 nM and 119 ± 49 nM, respectively. At hDAT, the “hDAT-mediated efflux, predicted (LS) mean diff, No mon - Mon” value is reported as -0.04333. In addition, the “hNET-mediated efflux, predicted (LS) mean diff, No mon - Mon” value on hNET [3] is -0.3417. In addition, the “hSERT efflux ± Mon, mean diff” value is on record as 0.1289 at hSERT [4] (Row 1 (2 min fraction 1, baseline KHB)); 0.1185 at hSERT [4] (Row 2 (2 min fraction 2, baseline KHB)); 0.1694 on hSERT [4] (Row 3 (2 min fraction 3, baseline KHB)); 0.04832 at hSERT [4] (Row 4 (fraction 4, KHB with or without 10 μM monensin)); -0.1068 on hSERT [4] (Row 5 (fraction 5, KHB with or without 10 μM monensin)); -0.2079 on hSERT [4] (Row 6 (fraction 6, KHB with or without 10 μM monensin)). Further, the “hSERT efflux ± Mon, mean diff” value at hSERT [4] (Row 7 (fraction 7, KHB with or without 10 μM monensin)) is on record as -0.2202; at hSERT [4] (Row 8 (fraction 8, compound at IC50 concentration)) it was -5.467; on hSERT [4] (Row 9 (fraction 9, compound at IC50 concentration)) it was -7.92; at hSERT [4] (Row 10 (fraction 10, compound at IC50 concentration)), -7.744; on hSERT [4] (Row 11 (fraction 11, compound at IC50 concentration)), -7.355; at hSERT [4] (Row 12 (fraction 12, compound at IC50 concentration)) it was -7.467. For the same compound, on hSERT [5], the “Mean of normalized currents elicited through hSERT by drug application” value is 0.386.

As to `CCCC(Cc1cccc(F)c1)N1CCCC1` (centres unmarked) [3-Fluoroprolintane, 1-[1-(3-fluorophenyl)pentan-2-yl]pyrrolidine], the figures for the 50% inhibitory concentration (IC50) at hSERT [1] and on hNET [2] were 13500 ± 1840 nM and 35 ± 11 nM, respectively. At hDAT, the “hDAT-mediated efflux, predicted (LS) mean diff, No mon - Mon” value is reported as 0.0325. Besides, at hNET [3], the “hNET-mediated efflux, predicted (LS) mean diff, No mon - Mon” value is recorded as 0.3678. In addition, the “Mean diff, hSERT efflux ± Mon” value at hSERT [4] (Row 1 (time fraction)) is recorded as 0,003889; on hSERT [4] (Row 2 (time fraction)), -0,003000; at hSERT [4] (Row 3 (time fraction)) it was 0,02067; on hSERT [4] (Row 4 (time fraction)) it was -0,01133; on hSERT [4] (Row 5 (time fraction)), -0,1369; at hSERT [4] (Row 6 (time fraction)), -0,2296. For the same compound, the “Mean diff, hSERT efflux ± Mon” value was -0,2910 on hSERT [4] (Row 7 (time fraction)); -4,827 at hSERT [4] (Row 8 (time fraction)); -7,510 at hSERT [4] (Row 9 (time fraction)); -7,391 on hSERT [4] (Row 10 (time fraction)); -7,140 on hSERT [4] (Row 11 (time fraction)); -7,011 at hSERT [4] (Row 12 (time fraction)). On hSERT [5], the “Mean of normalized currents elicited through hSERT by drug application” value was found to be 0.306.

For the compound `CCCC(Cc1cccc(C)c1)N1CCCC1` (centres unmarked) [3-Methylprolintane, 1-[1-(3-methylphenyl)pentan-2-yl]pyrrolidine], the IC50 against hSERT [1] is 2950 ± 541 nM; against hNET [2], 139 ± 33 nM. Moreover, the “hDAT-mediated efflux, predicted (LS) mean diff, No mon - Mon” value at hDAT is -0.702. Further, on hNET [3], the “hNET-mediated efflux, predicted (LS) mean diff, No mon - Mon” value is -0.8634. Moreover, the “Mean diff, hSERT efflux ± Mon” value is recorded as 0.05456 at hSERT [4] (Row 1 (time fraction)); 0.01844 on hSERT [4] (Row 2 (time fraction)); 0.02833 on hSERT [4] (Row 3 (time fraction)); 0.07733 on hSERT [4] (Row 4 (time fraction)); -0.1496 at hSERT [4] (Row 5 (time fraction)); -0.229 at hSERT [4] (Row 6 (time fraction)). The “Mean diff, hSERT efflux ± Mon” value is listed as -0.329 at hSERT [4] (Row 7 (time fraction)); -4.546 at hSERT [4] (Row 8 (time fraction)); -6.038 on hSERT [4] (Row 9 (time fraction)); -6.018 on hSERT [4] (Row 10 (time fraction)); -5.904 at hSERT [4] (Row 11 (time fraction)); -5.776 on hSERT [4] (Row 12 (time fraction)). Also, on hSERT [5], the “Mean of normalized currents elicited through hSERT by drug application” value turned out to be 0.354.
